Reference: patent US20060154990A1, “Use of MEK inhibitors in treating abnormal cell growth” (AGOURON PHARMACEUTICALS, INC., priority 2004, published 2006)
“And” between values parts separate entries of the source, which are not always exact repeats. Identical values can stand only once.

Key:
[1] = biological target: MEK1 (Homo sapiens, UniProt Q02750); assay: Cascade assay with raf-1, MEK1 and ERK1 (DELFIA readout); format: biochemical; details: purified MEK1, cascade assay raf-1/MEK1/ERK1; read-out: MEK enzyme IC50
[2] = system: ERK phosphorylation in tumor cells; assay: ERK phosphorylation in tumor cells grown in culture with 10% serum; format: cell-based; details: tumor cells in culture, 10% serum; read-out: IC50, reducing ERK phosphorylation
[3] = system: pERK in C26 tumors; assay: Tumor pERK inhibition and PK-PD in C26 tumor-bearing mice; format: in vivo; details: C26 tumor-bearing animals
[4] = Metabolites of [14C] Compound 1 in cryopreserved hepatocytes; format: in vitro ADME, human; details: [C-14] Compound 1 10 μM, 180 mins, listed as M 15
Experimental: (§1) Incubations were performed in hepatocytes for 3 hours and liver microsomes for 1.5 hours and were stopped with the addition of methanol. HPLC, in conjuction with ionspray 3D iontrap mass spectrometry, and simultaneous radioactive monitoring were used to detect and identify the resulting metabolites.
(§2) Metabolite identification of radiolabeled Compound 1 was performed after incubation with rat, dog, monkey and human cryopreserved hepatocytes and liver microsomes. […] Besides glucuronidation, metabolites derived from other clearance pathways are also observed. For instance, M 15 (acid cleavage product) accounts for 11% of the total radioactivity in the human chromatogram.

[5] = as above; format: in vitro ADME, monkey; details: [C-14] Compound 1 10 μM, 180 mins
Experimental: as §1, §2

[6] = as above; format: in vitro ADME, dog; details: [C-14] Compound 1 10 μM, 180 mins
Experimental: as §1, §2

[7] = as above; format: in vitro ADME, rat; details: [C-14] Compound 1 10 μM, 180 mins
Experimental: as §1, §2

[8] = Metabolites of [14C] Compound 1 in liver microsomes; format: in vitro ADME, human; details: [C-14] Compound 1 10 μM, 90 mins, listed as M 15
Experimental: as §1
(§3) This acid cleavage product is further metabolized to form hydroxylated (M 11, 16% in rat) and hydroxylated, defluorinated products (M 17, 19% in rat).

[9] = as above; format: in vitro ADME, monkey; details: [C-14] Compound 1 10 μM, 90 mins
Experimental: as §1, §3

[10] = as above; format: in vitro ADME, dog; details: [C-14] Compound 1 10 μM, 90 mins
Experimental: as §1, §3

[11] = as above; format: in vitro ADME, rat; details: [C-14] Compound 1 10 μM, 90 mins
Experimental: as §1, §3

[12] = Plasma pharmacokinetics after multiple oral doses in advanced cancer patients; details: for AUC of Compound 2 as % of the parent (median): human plasma
Experimental: Pharmacokinetic data are presented for the first 38 subjects.
Blood samples were collected from patients into a purple-top potassium EDTA Vacutainer tube. Following mixing with gentle inversion (8-10 times), tubes were centrifuged within 20 minutes at 1000×g for 15 minutes, to harvest plasma. Plasma samples were stored at −20° C. until analysis.
The following results are based on preliminary pharmacokinetic parameters from the 38 subjects, estimated using nominal collection times and quality-controlled, non quality-assured bioanalytical data. Pharmacokinetic parameters were determined by the non-compartmental method using WINNONLIN Professional Edition (Version 4.1). […] The maximum observed concentration (Cmax) was obtained by inspection of the concentration data. The time to reach the Cmax was the first time at which Cmax is observed and obtained by inspection of the data. The pre-dose concentration (Ctrough) was obtained by inspection of the concentration data.

[13] = system: ERK phosphorylation in colon 26 cells; assay: cells; details: Mus musculus, Colon 26, read-out: Cellular activity IC50

MEK1, sequence (Q02750 whole entry, species assumed): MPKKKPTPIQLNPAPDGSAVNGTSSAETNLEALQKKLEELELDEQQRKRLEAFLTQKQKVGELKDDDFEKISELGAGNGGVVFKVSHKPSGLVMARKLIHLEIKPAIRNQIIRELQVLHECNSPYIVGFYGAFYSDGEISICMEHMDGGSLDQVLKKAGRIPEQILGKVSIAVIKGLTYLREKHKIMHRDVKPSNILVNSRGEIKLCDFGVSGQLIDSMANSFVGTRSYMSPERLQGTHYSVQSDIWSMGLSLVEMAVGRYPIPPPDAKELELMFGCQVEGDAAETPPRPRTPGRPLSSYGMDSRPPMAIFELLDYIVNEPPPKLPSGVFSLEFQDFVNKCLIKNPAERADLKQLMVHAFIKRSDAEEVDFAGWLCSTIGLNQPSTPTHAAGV

Row | Compound | IC50 [1] [nM] | IC50 [2] [nM] | target suppression of pERK in tumors ([3]; 2 hours after 75 mg/kg IV) [%] | pERK activity in tumors ([3]; 24 hours after 75 mg/kg IV) | % ROI Human [4] | % ROI Monkey [5] [%] | % ROI Dog [6] [%] | % ROI Rat [7] [%] | % ROI Human [8] | % ROI Monkey [9] [%] | % ROI Dog [10] [%] | % ROI Rat [11] [%] | increase of AUC of Compound 2 ([12]; after 21-day multiple BID dosing of Compound 1) | AUC of Compound 2 as % of the parent (median) ([12]; multiple dosing of Compound 1) [%] | AUC of Compound 2 as % of the parent (median) ([12]; single dosing of Compound 1) | terminal plasma half-life compared with parent ([12]; patients, after oral Compound 1) | IC50 [13] [nM]
1 | O=C(O)c1ccc(F)c(F)c1Nc1ccc(I)cc1F [Compound 2] | 66 | 1300 | 98 | returned to control levels | 11% and 11.07% | 1.72 | 2.46 | 4.31 | 9% and 8.73% | 5.24 | 4.12 | 1.86 | 2.0-5.0 fold | ~120 | approximately 66% | longer than that of the parent drug | –
2 | O=C(NOC[C@@H](O)CO)c1ccc(F)c(F)c1Nc1ccc(I)cc1F [Compound 3] | – | – | – | – | – | – | – | – | – | – | – | – | – | – | – | – | 0.83
